Residues, ends and D or L forms follow the SMILES beside them. *: point of attachment. Myristoyl = CCCCCCCCCCCCCC(=O)*
How the values were obtained:
[1] = system: human bronchial epithelial cells; experiment: Basal (constitutive) mucin secretion by human bronchial epithelial cells; format: cell-based; details: one hour incubation
Method: Mucus secreted from the airway epithelial cells in vitro after stimulation by activators was assessed using an ELISA (antibody capture method) (E. Harlow, D. Lane. “Antibodies: A Laboratory Manual.” New York: Cold Spring Harbor Laboratory Press, 1988), wherein the collected mucus is bound directly to the ELISA plate. Mucus was detected using an antibody raised against monkey airway mucus (Lin et al. Am J Respir Cell Mol Biol 1:41, 1989).
The MANS peptide (100 μM) was also found to decrease constitutive (basal) mucus secretion by one hour incubation. Cells were treated as described above except that no PMA or 8-Br-cGMP was used. […] Results, designated as Results-M-1B, are presented as follows and show the inhibition of basal mucin secretion by human bronchial epithelial cells exposed to the MANS peptide (SEQ ID NO: 1) or a negative control peptide consisting of the same amino acids as the MANS peptide, but in random order (RNS peptide; random N-terminal sequence (SEQ ID NO: 26):
The effect of MA-PSD peptide (1, 10 and 100 μM) on basal mucin secretion was also measured. Cells as described above were incubated for one hour with the MA-PSD peptide (no PMA or 8-Br-cGMP).

NHBE cells = experiment: PMA+8-Br-cGMP-induced mucin secretion from NHBE cells (ELISA); format: cell-based, human; details: pre- and co-incubation with 100 nM PMA+1 μM 8-Br-cGMP (Results-M-1A/M-3A)
Method: Peptide Blocking Studies—NHBE cells were preincubated with either the MANS or the RNS peptide (1-100 μM) for 15 min, and then PMA (100 nM)+8-Br-cGMP (1 μM) or UTP (100 μM) was added, and cells were incubated for an additional 15 min or 2 h. respectively. Mucin secretion was measured by ELISA and experimental results are designated as Results-I-2B-1 and Results-I-2B-2, as follows. […]
Measurement of Mucin Secretion by ELISA—Before collection of “base line” and “test” mucin samples, the accumulated mucus at the apical surface of the cells was removed by washing with phosphate-buffered saline, pH 7.2. To collect the base-line secretion, cells were incubated with medium alone, and secreted mucin in the apical medium was collected and reserved. Cells were rested for 24 h and then exposed to medium containing the selected stimulatory and/or inhibitory reagents (or appropriate controls), after which secreted mucin was collected and reserved as the test sample. Incubation times for the base line and the test were the same but varied depending on the test reagent utilized. Both base line and test secretions were analyzed by ELISA using an antibody capture method as known in the art. See, e.g., Harlow et al., Antibodies: A Laboratory Manual, pp. 570-573, Cold Spring Harbor Laboratory, Cold Spring Harbor, N.Y. (1988). The primary antibody for this assay was 17Q2 (Babco, Richmond, Calif.), a monoclonal antibody that reacts specifically with a carbohydrate epitope on human airway mucins. The ratio of test/base-line mucin, which is similar to a “secretory index”, was used to quantify mucin secretion, allowing each culture dish to serve as its own control and thus, minimizing deviation caused by variability among culture wells. Wright et al., Am. J. Physiol. 271, L854-L861 (1996). Levels of mucin secretion were reported as percentage of the medium control.
MARCKS-related Peptides—Both the myristoylated N-terminal sequence (MANS) and the random N-terminal sequence (RNS) peptides were synthesized at Genemed Synthesis, Inc. (San Francisco, Calif.), then purified by high pressure liquid chromatography (>95% pure), and confirmed by mass spectroscopy with each showing one single peak with an appropriate molecular mass. The MANS peptide consisted of sequence identical to the first 24 amino acids of MARCKS, i.e. the myristoylated N-terminal region that mediates MARCKS insertion into membranes, MA-[…] (SEQ ID NO: 1) (where MA=N-terminal myristate chain). The corresponding control peptide (RNS) contained the same amino acid composition as the MANS but arranged in random order, MA-[…] (SEQ ID NO: 26). The presence of the hydrophobic myristate moiety in these synthetic peptides enhances their permeability to the plasma membranes, enabling the peptides to be taken up readily by cells. To determine the effects of these peptides on mucin secretion, cells were preincubated with the peptides for 15 min prior to addition of secretagogues, and mucin secretion was then measured by ELISA.
Antisense Oligonucleotides—MARCKS antisense oligonucleotide and its corresponding control oligonucleotide were synthesized at Biognostik GmbH (Gottingen, Germany). NHBE cells were treated with 5 μM antisense or control oligonucleotide apically for 3 days (in the presence of 2 μg/ml lipofectin for the first 24 h). Cells were then incubated with secretagogues, and mucin secretion was measured by ELISA. Total RNA and protein were isolated from treated cells. MARCKS mRNA was assessed by Northern hybridization according to conventional procedures using human MARCKS cDNA as a probe. MARCKS protein level was determined by Western blot using purified anti-MARCKS IgG1 (clone 2F12) as the primary detection antibody.
The effect on mucus secretion of a myristoylated peptide containing the first 24 amino acids of the human MARCKS protein (MANS; myristoylated N-terminal sequence; SEQ ID NO: ) was tested. Cultured normal human bronchial epithelial cells as described above were used. […]

[2] = molecular target: T1, cGMP-dependent protein kinase (PKG) (Homo sapiens, UniProt Q13976); experiment: PKG activity in NHBE cells; format: cell-based; details: 100 μM
T1 construct: endogenous in cells; host or cells: NHBE cells
T1 sequence (Q13976 1-671): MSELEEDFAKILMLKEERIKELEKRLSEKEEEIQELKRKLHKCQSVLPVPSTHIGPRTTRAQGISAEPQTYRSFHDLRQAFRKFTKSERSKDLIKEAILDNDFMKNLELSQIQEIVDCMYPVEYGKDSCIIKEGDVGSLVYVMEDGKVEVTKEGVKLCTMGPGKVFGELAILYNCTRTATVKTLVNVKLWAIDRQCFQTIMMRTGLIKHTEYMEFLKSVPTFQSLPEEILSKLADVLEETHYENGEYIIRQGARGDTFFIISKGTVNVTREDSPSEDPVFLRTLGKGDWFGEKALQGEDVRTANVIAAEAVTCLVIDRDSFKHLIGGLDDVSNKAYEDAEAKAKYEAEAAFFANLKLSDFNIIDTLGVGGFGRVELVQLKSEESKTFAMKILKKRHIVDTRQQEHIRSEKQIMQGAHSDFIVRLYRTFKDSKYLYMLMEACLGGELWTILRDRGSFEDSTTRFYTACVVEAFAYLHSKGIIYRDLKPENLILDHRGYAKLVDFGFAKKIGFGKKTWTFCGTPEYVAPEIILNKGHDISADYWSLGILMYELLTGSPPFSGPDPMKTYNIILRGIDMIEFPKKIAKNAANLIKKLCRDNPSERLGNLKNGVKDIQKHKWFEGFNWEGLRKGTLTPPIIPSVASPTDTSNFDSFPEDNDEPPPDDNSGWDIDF
Method: Phosphorylation of MARCKS by PMA was attenuated by Calphostin C (500 nM). NHBE cells also contained substantial amounts of cGMP-dependent protein kinase type 1α (PKG-1α) activity, which was localized to the cytosolic fraction. […] In addition, the phosphorylation of MARCKS induced by PMA was reversed by incubation with 8-Br-cGMP (10 μM).

Structure (SMILES) | Basal mucin secretion level relative to control ([1]; peptide 1 μM) | Basal mucin secretion level relative to control ([1]; peptide 10 μM) | Basal mucin secretion level relative to control ([1]; peptide 100 μM, no PMA or 8-Br-cGMP) | Mucin secretion level relative to media control (NHBE cells; peptide 1 μM) | Mucin secretion level relative to media control (NHBE cells; peptide 10 μM) | Mucin secretion level relative to media control (NHBE cells; peptide 100 μM) | PKG activity [2]
CCCCCCCCCCCCCC(=O)N[C@@H](CCCCN)C(=O)N[C@@H](CCCCN)C(=O)N[C@@H](CCCCN)C(=O)N[C@@H](CCCCN)C(=O)N[C@@H](CCCCN)C(=O)N[C@@H](CCCNC(=N)N)C(=O)N[C@@H](Cc1ccccc1)C(=O)N[C@@H](CO)C(=O)N[C@@H](Cc1ccccc1)C(=O)N[C@@H](CCCCN)C(=O)N[C@@H](CCCCN)C(=O)N[C@@H](CO)C(=O)N[C@@H](Cc1ccccc1)C(=O)N[C@@H](CCCCN)C(=O)N[C@@H](CC(C)C)C(=O)N[C@@H](CO)C(=O)NCC(=O)N[C@@H](Cc1ccccc1)C(=O)N[C@@H](CO)C(=O)N[C@@H](Cc1ccccc1)C(=O)N[C@@H](CCCCN)C(=O)N[C@@H](CCCCN)C(=O)N[C@@H](CC(N)=O)C(=O)N[C@@H](CCCCN)C(=O)N[C@@H](CCCCN)C(=O)O [MA-PSD peptide] (Myristoyl-KKKKKRFSFKKSFKLSGFSFKKNKK-OH; C-terminus assumed) | 102% | 91% | 285% | 226% | 316% | 191% | –
CCCC(=O)Nc1nc2c(ncn2[C@@H]2O[C@@H]3COP(=O)(O)O[C@H]3[C@H]2OC(=O)CCC)c(=O)[nH]1 [dibutryl cGMP] | – | – | – | – | – | – | increased

Reference: patent US8501911B2, “Methods of reducing inflammation and mucus hypersecretion” (Biomarck Pharmaceuticals, Ltd, priority 1999, dated 2013)
